ChEMBL document CHEMBL5465560, “Selectivity Literature for EUbOPEN Chemogenomic Library” (2024)

Tests used:
[1] = molecular target: Serine/threonine-protein kinase PLK2 (Homo sapiens, UniProt Q9NYY3); assay: Selectivity interaction (KinomeScan (DiscoverX)) EUB0000595a PLK2; conditions: at 10 µM
[2] = molecular target: T1, Cyclin-dependent kinase-like 5 (Homo sapiens) (UniProt O76039); assay: Selectivity interaction (KinomeScan (DiscoverX)) EUB0000045b CDKL5
T1 sequence (whole entry): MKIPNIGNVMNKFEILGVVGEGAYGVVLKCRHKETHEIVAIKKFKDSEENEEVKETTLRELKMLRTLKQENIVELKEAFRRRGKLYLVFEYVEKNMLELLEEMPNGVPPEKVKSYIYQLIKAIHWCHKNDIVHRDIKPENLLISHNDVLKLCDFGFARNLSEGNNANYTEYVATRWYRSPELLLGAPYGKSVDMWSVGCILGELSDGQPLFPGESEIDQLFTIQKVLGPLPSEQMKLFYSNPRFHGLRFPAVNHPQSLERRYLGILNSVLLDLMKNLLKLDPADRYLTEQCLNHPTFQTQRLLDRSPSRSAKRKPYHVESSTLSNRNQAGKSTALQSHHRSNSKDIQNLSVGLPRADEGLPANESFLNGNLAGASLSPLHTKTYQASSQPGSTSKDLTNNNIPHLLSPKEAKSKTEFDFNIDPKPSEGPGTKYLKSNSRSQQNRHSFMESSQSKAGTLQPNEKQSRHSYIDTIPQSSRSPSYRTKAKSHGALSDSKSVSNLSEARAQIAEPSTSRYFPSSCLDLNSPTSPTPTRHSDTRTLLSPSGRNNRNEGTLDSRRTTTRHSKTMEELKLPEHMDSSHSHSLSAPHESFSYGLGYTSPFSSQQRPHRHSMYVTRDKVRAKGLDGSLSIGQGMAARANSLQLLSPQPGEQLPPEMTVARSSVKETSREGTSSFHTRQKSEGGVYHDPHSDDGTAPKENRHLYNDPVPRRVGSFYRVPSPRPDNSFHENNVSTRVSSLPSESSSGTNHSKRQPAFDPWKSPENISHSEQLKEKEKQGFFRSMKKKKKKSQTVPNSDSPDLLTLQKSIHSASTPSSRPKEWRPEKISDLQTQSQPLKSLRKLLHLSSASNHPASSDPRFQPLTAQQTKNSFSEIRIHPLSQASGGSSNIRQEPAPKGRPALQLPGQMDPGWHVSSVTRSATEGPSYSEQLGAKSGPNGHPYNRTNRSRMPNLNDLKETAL

[3] = molecular target: T2, Aurora kinase A (Homo sapiens) (UniProt O14965); assay: Selectivity interaction (Kinase panel (Z-LYTE Assay)) EUB0001632a STK6; conditions: at 10 µM
T2 sequence (whole entry): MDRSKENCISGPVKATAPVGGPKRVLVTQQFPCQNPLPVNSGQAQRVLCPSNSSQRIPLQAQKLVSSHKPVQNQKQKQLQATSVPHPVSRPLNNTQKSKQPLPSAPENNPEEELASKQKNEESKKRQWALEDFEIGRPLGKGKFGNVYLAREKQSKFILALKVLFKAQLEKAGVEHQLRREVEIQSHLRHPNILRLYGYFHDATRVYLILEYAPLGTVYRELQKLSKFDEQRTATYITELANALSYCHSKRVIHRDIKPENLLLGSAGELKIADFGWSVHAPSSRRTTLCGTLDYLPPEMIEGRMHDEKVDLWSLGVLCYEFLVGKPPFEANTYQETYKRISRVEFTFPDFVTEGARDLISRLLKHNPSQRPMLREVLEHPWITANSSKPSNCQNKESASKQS

[4] = system: Leucine-rich repeat serine/threonine-protein kinase 2 (Homo sapiens), Q5S007 [G2019S]; assay: (§1) Selectivity interaction (Adapta Assay) EUB0001632a LRRK2; conditions: at 10 µM
[5] = system: Leucine-rich repeat serine/threonine-protein kinase 2 (Homo sapiens), Q5S007 [I2020T]; assay: as §1; conditions: at 10 µM
[6] = system: Leucine-rich repeat serine/threonine-protein kinase 2 (Homo sapiens), Q5S007 [R1441C]; assay: as §1; conditions: at 10 µM
[7] = molecular target: Leucine-rich repeat serine/threonine-protein kinase 2 (Homo sapiens, UniProt Q5S007); assay: as §1; conditions: at 10 µM
[8] = molecular target: Mitogen-activated protein kinase 9 (Homo sapiens, UniProt P45984); assay: Selectivity interaction (Upstate Kinase Profiler service (Millipore)) EUB0000056c MAPK9; conditions: at 1 µM
[9] = molecular target: T3, Interleukin-1 receptor-associated kinase 3 (Homo sapiens) (UniProt Q9Y616); assay: Selectivity interaction (ActivX KiNativ screen (ex vivo kinase selectivity in human PBMCs)) EUB0001619a IRAK3; assay type: cell-based; conditions: PBMC, at 1 µM
T3 sequence (whole entry): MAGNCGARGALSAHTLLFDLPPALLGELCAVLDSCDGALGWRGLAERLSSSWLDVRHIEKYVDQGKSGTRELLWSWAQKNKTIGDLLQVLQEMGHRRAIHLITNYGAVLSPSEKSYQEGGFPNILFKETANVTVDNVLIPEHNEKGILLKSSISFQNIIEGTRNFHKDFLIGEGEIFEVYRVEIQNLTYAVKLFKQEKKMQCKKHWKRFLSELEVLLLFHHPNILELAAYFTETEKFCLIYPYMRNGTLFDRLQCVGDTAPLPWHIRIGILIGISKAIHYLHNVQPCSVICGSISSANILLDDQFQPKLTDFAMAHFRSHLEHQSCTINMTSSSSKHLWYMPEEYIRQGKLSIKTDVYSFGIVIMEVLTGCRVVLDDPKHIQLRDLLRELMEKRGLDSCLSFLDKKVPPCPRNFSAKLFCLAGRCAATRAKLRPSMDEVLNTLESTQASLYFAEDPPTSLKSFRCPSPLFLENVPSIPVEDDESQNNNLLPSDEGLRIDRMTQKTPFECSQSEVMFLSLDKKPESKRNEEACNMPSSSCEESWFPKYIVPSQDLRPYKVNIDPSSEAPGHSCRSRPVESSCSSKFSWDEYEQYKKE

[10] = molecular target: Ribosomal protein S6 kinase alpha-3 (Homo sapiens, UniProt P51812); assay: Selectivity interaction (ActivX KiNativ screen (kinase selectivity in THP-1 cell lysates)) EUB0000639a RPS6KA3; assay type: subcellular; conditions: lysate, at 0.01 µM
[11] = molecular target: Phosphatidylinositol 4-phosphate 5-kinase type-1 gamma (Homo sapiens) (UniProt O60331); assay: Selectivity interaction (KinomeScan (DiscoverX)) EUB0000092b PIP5K1C; conditions: at 10 µM
[12] = molecular target: T4, cAMP-dependent protein kinase catalytic subunit PRKX (Homo sapiens) (UniProt P51817); assay: Selectivity interaction (KinomeScan (DiscoverX)) EUB0000092b PRKX; conditions: at 10 µM
T4 sequence (whole entry): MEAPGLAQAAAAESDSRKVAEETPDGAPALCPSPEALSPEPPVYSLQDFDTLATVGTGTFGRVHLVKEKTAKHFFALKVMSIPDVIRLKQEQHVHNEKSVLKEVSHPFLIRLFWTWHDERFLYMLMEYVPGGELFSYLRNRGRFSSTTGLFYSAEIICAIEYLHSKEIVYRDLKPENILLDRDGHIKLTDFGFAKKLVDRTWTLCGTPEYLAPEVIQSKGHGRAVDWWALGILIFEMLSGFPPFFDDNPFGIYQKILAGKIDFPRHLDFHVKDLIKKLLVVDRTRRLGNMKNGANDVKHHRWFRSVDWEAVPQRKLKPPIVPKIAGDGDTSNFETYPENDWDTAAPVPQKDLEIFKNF

Chain of Ribosomal protein S6 kinase alpha-3 (P51812 whole entry): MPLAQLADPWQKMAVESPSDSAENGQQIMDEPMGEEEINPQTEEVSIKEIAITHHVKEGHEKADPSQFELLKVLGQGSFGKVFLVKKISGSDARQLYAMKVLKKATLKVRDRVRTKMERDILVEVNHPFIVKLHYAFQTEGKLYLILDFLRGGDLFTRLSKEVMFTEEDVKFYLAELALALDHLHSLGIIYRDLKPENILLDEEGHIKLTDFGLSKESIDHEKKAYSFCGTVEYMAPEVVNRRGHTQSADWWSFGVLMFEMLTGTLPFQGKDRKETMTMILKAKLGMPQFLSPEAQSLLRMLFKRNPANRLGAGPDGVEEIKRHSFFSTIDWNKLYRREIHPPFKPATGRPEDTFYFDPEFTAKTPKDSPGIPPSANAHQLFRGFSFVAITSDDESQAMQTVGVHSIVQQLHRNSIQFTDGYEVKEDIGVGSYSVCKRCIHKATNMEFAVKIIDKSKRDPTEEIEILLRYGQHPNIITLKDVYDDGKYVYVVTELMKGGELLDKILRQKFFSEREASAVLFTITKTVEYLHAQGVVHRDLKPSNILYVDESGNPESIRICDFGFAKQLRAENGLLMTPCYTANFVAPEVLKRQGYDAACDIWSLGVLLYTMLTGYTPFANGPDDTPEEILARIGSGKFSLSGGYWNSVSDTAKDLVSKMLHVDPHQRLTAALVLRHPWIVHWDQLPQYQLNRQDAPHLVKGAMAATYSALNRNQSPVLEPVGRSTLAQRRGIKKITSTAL
Chain of Leucine-rich repeat serine/threonine-protein kinase 2 (Q5S007 whole entry): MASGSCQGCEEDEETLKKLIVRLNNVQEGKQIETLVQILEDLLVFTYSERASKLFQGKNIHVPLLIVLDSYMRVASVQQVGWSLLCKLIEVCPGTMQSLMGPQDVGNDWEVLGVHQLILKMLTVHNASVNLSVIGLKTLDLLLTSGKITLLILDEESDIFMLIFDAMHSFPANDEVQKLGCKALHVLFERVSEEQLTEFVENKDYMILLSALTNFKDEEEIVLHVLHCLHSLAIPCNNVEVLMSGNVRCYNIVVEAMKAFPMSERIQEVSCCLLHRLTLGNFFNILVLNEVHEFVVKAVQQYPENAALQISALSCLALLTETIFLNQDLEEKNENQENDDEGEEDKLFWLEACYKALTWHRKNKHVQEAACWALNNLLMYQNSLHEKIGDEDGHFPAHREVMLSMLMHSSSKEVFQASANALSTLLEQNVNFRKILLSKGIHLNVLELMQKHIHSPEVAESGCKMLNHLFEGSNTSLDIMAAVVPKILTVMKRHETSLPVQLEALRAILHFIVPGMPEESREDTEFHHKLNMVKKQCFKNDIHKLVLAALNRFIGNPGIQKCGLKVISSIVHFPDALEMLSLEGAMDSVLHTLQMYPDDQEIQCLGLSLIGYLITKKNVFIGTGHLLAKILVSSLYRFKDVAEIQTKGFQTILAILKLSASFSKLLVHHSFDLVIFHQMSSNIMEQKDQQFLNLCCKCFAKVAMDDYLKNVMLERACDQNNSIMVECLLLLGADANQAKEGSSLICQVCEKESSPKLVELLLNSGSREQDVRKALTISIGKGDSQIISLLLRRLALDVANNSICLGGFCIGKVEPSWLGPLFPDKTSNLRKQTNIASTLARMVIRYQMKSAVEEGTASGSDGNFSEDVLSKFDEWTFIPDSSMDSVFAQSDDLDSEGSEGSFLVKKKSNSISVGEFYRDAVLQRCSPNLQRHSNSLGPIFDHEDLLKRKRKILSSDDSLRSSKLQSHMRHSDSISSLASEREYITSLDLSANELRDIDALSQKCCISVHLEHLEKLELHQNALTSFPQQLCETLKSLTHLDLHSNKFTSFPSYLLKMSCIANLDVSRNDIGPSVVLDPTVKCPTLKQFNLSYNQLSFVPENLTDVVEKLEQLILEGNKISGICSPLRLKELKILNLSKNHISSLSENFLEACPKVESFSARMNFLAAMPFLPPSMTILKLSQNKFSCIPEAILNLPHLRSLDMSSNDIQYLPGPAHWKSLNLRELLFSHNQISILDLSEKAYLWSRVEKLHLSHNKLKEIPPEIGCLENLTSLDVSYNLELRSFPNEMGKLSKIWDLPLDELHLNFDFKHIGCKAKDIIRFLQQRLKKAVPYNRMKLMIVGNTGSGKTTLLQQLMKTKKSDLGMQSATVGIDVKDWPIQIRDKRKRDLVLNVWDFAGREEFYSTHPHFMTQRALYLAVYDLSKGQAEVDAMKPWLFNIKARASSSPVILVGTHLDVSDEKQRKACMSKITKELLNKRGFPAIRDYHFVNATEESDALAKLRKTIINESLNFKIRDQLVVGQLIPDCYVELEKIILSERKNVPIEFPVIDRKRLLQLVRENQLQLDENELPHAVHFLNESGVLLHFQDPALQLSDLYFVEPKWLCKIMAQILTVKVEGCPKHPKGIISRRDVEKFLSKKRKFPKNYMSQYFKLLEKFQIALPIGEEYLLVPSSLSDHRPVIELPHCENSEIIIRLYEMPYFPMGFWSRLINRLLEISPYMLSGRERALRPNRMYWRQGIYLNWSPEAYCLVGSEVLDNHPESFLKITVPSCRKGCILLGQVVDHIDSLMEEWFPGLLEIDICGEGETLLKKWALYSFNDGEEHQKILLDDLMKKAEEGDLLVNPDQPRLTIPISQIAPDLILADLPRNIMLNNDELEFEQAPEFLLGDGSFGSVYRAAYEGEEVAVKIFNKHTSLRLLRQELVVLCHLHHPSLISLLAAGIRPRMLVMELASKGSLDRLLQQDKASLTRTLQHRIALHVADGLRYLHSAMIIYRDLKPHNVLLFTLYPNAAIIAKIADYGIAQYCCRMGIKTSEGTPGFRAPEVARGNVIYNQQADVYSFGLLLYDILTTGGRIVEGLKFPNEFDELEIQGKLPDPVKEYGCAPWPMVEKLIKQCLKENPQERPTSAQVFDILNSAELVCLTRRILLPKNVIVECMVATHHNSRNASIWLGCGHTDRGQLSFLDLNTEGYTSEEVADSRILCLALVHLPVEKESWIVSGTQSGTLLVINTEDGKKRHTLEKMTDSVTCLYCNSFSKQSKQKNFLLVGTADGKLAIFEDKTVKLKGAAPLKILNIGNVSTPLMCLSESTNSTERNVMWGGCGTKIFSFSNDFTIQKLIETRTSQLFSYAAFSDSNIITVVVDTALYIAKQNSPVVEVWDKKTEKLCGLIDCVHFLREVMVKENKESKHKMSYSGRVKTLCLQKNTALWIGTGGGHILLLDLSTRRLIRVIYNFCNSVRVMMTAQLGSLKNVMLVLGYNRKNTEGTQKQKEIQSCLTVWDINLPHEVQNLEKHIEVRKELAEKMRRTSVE
Chain of Serine/threonine-protein kinase PLK2 (Q9NYY3 whole entry, looked up): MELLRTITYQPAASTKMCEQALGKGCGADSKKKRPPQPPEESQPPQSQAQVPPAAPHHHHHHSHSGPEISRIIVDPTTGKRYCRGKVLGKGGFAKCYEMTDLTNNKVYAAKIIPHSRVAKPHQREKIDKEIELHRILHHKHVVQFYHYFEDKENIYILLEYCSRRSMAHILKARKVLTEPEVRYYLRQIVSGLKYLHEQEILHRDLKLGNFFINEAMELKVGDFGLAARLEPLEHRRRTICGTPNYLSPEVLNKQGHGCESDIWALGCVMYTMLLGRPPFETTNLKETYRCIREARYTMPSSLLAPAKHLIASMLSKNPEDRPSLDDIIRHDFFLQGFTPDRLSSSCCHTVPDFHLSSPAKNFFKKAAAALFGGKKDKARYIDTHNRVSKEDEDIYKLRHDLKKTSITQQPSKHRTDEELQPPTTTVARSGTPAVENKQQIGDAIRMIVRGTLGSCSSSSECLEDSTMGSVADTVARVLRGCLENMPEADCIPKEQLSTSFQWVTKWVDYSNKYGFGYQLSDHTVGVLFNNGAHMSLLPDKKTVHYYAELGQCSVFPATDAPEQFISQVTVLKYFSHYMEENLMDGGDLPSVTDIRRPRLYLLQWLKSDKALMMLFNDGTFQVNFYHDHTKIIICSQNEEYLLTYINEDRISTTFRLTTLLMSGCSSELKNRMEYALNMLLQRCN
Chain of Mitogen-activated protein kinase 9 (P45984 whole entry, looked up): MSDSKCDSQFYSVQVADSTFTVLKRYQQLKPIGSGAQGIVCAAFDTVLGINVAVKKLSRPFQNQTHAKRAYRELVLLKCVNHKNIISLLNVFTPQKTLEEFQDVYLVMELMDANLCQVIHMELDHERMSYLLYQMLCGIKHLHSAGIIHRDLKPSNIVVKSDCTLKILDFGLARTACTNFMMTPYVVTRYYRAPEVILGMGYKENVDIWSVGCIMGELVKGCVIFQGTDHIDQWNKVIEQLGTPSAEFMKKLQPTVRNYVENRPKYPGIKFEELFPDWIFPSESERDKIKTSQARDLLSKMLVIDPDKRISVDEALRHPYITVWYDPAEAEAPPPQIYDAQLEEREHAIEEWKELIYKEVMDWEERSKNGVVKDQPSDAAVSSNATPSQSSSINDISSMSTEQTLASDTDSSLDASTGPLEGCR
Chain of Phosphatidylinositol 4-phosphate 5-kinase type-1 gamma (Homo sapiens) (O60331 whole entry): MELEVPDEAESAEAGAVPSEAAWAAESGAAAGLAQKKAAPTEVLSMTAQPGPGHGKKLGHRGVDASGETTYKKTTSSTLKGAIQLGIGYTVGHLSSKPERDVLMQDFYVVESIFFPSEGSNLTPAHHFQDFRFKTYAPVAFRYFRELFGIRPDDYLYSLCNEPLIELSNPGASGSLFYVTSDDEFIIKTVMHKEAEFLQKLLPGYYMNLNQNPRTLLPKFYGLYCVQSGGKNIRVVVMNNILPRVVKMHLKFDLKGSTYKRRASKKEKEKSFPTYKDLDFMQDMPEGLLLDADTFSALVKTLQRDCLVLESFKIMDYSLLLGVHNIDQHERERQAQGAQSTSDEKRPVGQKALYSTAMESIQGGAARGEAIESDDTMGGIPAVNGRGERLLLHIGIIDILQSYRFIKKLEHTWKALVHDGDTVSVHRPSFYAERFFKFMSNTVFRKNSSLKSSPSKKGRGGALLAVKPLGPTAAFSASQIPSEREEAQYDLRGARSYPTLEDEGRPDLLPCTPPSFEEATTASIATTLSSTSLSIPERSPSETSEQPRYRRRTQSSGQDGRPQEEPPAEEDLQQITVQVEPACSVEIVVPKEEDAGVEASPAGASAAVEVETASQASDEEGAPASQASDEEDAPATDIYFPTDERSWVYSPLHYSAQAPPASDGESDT
Chain of Leucine-rich repeat serine/threonine-protein kinase 2 (Homo sapiens), Q5S007 [R1441C] (Q5S007 whole entry R1441C): as the sequence (Q5S007 whole entry) above, with R1441C counted along it

## COCC(=O)NC/C=C/c1ccc2ncnc(Nc3ccc(Oc4ccc(C)nc4)c(C)c3)c2c1 [CP-724714]
[1]
  % of control: 100%

## C=CC(=O)Nc1cc(-n2c(=O)ccc3cnc4ccc(-c5ccc(NS(C)(=O)=O)cc5)cc4c32)ccc1C
[2]; at 1 µM
  % of control: 100%
[2]; at 10 µM
  % of control: 81%

## Cn1cc(-n2cnc3c(NCc4nc5cc(Cl)c(Cl)cc5[nH]4)nc(N4CCOCC4)nc32)cn1
[3]
  % of control: 9.63%
[4]
  % of inhibition: 23.9%
[5]
  % of inhibition: 100%
[6]
  % of inhibition: 96.1%
[7]
  % of inhibition: 18.9%

## Cc1ccc(-c2ccc3c(ccc4sc5c(c43)NC[C@@H](C)NC5=O)n2)cn1
[8]
  % of inhibition: -12%

## N#Cc1cccc(-c2c[nH]c3ncnc(N4CCOCC4)c23)c1
[9]
  % of inhibition: 34%

## CC[C@@H]1[C@H](F)C(=O)N[C@@H]1COc1nccc2cc(C(N)=O)c(OC)cc12 [ZIMLOVISERTIB]
[10]
  % of inhibition: -9.7%

## CCC(=O)N1CCN(c2ccc(-n3c(=O)ccc4cnc5ccc(-c6cnc7ccccc7c6)cc5c43)cc2C(F)(F)F)CC1
[11]
  % of control: 80%
[12]
  % of control: 83%
